The results in this text go back to patent US20220348572A1, “BRIDGED HETEROCYCLYL-SUBSTITUTED PYRIMIDINE COMPOUND, PREPARATION METHOD THEREFOR, AND PHARMACEUTICAL USE THEREOF” (The National Institutes of Pharmaceutical R&D Co., Ltd., priority 2019, published 2022).

Test [1] relates to IFN-2α-stimulated TYK2/JAK1-mediated pathway (pSTAT3). Put plainly: Inhibition of STAT3 signaling pathway of human whole blood (IFN-2α-induced pSTAT3, flow cytometry). In kind it is cell-based. As to the method: Test Example 3: Inhibition Effect of the Compounds of the Present Invention on STAT3 Signaling Pathway of Human Whole Blood
Sample preparation: The compounds of the present invention and the control were dissolved in DMSO solvent respectively to formulate into 10 mM initial liquid. The maximum concentration of the compound was 10 μM, 3-fold dilution, 10 concentration gradients, and duplicate wells for each concentration gradient.
Experimental process: 20 μL of the compound of the present invention was added to a flow cytometer tube (BD, 352052) containing 180 μL anticoagulant sodium heparin. 20 μL PBS was added to the control. The sample was incubated at 37° C. for 30 min. 2 μL stimulating factor was added and then incubated at 37° C. for 20 min. 1 mL erythrocyte lysate was rapidly added, and the sample was repeatedly inverted 5-10 times or vortexed and then incubated at 37° C. for 10 min. The sample was centrifuged at 600 g for 6-8 min. The supernatant was discarded. The precipitate was vortexed until suspending. The cells were washed with 3 mL PBS and centrifuged at 600 g for 6-8 min. The supernatant was discarded. The precipitate was vortexed until suspending. 1 mL of membrane breaking solution was added, and the system was mixed gently, incubated on ice for 30 min, and centrifuged at 600 g for 6-8 min. The supernatant was discarded. The precipitate was vortexed until suspending. The cells were washed. 3 mL PBS was added. The system was centrifuged at 600 g for 6-8 min. The supernatant was discarded. The precipitate was vortexed untile suspending. The process was repeated twice. 100 μL PBS was added to each staining tube. IFN-2a was added for stimulation, and CD3 and pSTAT3 antibodies […] were added. The system was mixed well, protected from light and incubated at room temperature for 60 min. The cells were washed. 3 mL PBS was added. The system was centrifuged at 600 g for 6-8 min. The supernatant was discarded. The precipitate was vortexed until suspending. The precipitate was suspended in 150 μL in the dark for the flow cytometry analysis. The IC50 (half inhibitory concentration) of the compounds was obtained by using the following non-linear fitting equation:
Y=Bottom+(Top−Bottom)/(1+10^((Log IC50−X)*HillSlope));
X: Log value of the concentration of the compound;
Bottom: The minimum value, Top: The maximum value, HillSlope: Slope
The inhibition effect of by the compounds of the present invention on the IFN-2α-stimulated TYK2/JAK1-mediated pathway is shown in Table 3. IC50 value of 0-100 nM is shown as A, IC50 value of 100-300 nM is shown as B, IC50 value of 300-1000 nM is shown as C, IC50 value which is greater than 1000 nM is shown as D. NT means not tested.

Another test deals with AIA in rats. Put plainly: Pharmacodynamic study for AIA in rats (complete Freund's adjuvant, joint swelling score). Format: in vivo, Lewis rats. To be noted: for Scoring value Day 1: Day 1, Mean ± SD; for Scoring value Day 1 / Scoring value Day 3 / Scoring value Day 7: AIA Lewis rats; for Scoring value Day 3: Day 3, Mean ± SD; for Scoring value Day 7: Day 7, Mean ± SD; for symptoms of arthritis induced by complete Freund's adjuvant (in words): AIA model in rats. An excerpt:
Test Example 4: Pharmacodynamic Studies of the Compounds of Example 1, Example 1-b and Example 3 for AIA in Rats
Experimental material: complete Freund's adjuvant (Chondrex, 7027)
Experimental process: The in vivo efficacy of the compounds of the invention was investigated. 8-Week-old female Lewis rats were selected for modeling by complete Freund's adjuvant (J. of Immunology, 2010, 184: 5298-5307) and grouped after 12 days. 7 groups were divided: the model group, the Example 1 low dose group (3 mg/kg), the Example 1 high dose group (30 mg/kg), the Example 1-b low dose group (1 mg/kg), the Example 1-b high dose group (3 mg/kg), the Example 3 low dose group (3 mg/kg) and the Example 3 high dose group (30 mg/kg). The model group was given 0.5% CMC-Na and the rest groups were given the corresponding dose of the compound. The animals were scored according to the degree of joint swelling after 7 days of oral administration (Proc Soc Exp Bio Med 1962, 111: 544-547).

For `Cn1cc(Nc2nccc(C3=C[C@H]4CC[C@@H](C3)N4C(=O)[C@@H]3CC3(F)F)n2)cn1` [Compound 1-b, ((S)-2,2-difluorocyclopropyl)((1R,5S)-3-(2-((1-methyl-1H-pyrazol-4-yl)amino)pyrimidin-4-yl)-8-azabicyclo[3.2.1]oct-2-en-8-yl)methanone], the IC50 in test [1] is < 100 nM. In the test with AIA in rats (1 mg/kg oral), the “Scoring value Day 1” value was found to be 3.30 ± 2.67, the “Scoring value Day 3” value came out at 3.10 ± 3.51 and the “Scoring value Day 7” value came out at 3.30 ± 3.71. Further, in the test with AIA in rats (3 mg/kg oral), the “Scoring value Day 1” value was 3.30 ± 2.67, the “Scoring value Day 3” value is on record as 0.30 ± 0.95 and the “Scoring value Day 7” value stood at 1.50 ± 3.75. The “symptoms of arthritis induced by complete Freund's adjuvant (in words)” value (shortened to “symptoms of arthritis induced”) in the test on AIA in rats is “significantly inhibit”.
For the compound `Cn1cc(Nc2nccc(C3=CC4CCC(C3)N4C(=O)NCC(F)(F)F)n2)cn1` (stereo not drawn) [Compound 3, 3-(2-((1-methyl-1H-pyrazol-4-yl)amino)pyrimidin-4-yl)-N-(2,2,2-trifluoroethyl)-8-azabicyclo[3.2.1]oct-2-ene-8-carboxamide], in test [1], the IC50 is < 100 nM. For the same compound, in the test with AIA in rats (3 mg/kg oral), the “Scoring value Day 1” value stood at 3.78 ± 1.92, the “Scoring value Day 3” value was found to be 3.78 ± 1.72 and the “Scoring value Day 7” value amounted to 1.33 ± 0.87. Further, in the test on AIA in rats (30 mg/kg oral), the “Scoring value Day 1” value came out at 3.44 ± 1.94, the “Scoring value Day 3” value is on record as 0.56 ± 0.53 and the “Scoring value Day 7” value is 0.00 ± 0.00. Also, the “symptoms of arthritis induced” value in the test with AIA in rats was “significantly inhibit”.
`Cn1cc(Nc2nccc(C3=CC4CCC(C3)N4C(=O)[C@@H]3CC3(F)F)n2)cn1` (stereo partly drawn) [Compound 1, ((S)-2,2-difluorocyclopropyl)(3-(2-((1-methyl-1H-pyrazol-4-yl)amino)pyrimidin-4-yl)-8-azabicyclo[3.2.1]oct-2-en-8-yl)methanone]: the half-maximal inhibitory concentration (IC50) in test [1] was < 100 nM. In addition, in the test with AIA in rats (3 mg/kg oral), the “Scoring value Day 1” value was found to be 3.78 ± 2.54, the “Scoring value Day 3” value amounted to 2.67 ± 1.22 and the “Scoring value Day 7” value stood at 0.22 ± 0.44. Also, in the test on AIA in rats (30 mg/kg oral), the “Scoring value Day 1” value came to 4.11 ± 2.52, the “Scoring value Day 3” value amounted to 0.44 ± 0.73 and the “Scoring value Day 7” value was 0.00 ± 0.00. The “symptoms of arthritis induced” value with AIA in rats is given as “significantly inhibit”.

As usually defined, the IC50 is the midpoint of a concentration-inhibition curve. Low values mean greater potency in that assay, high ones weaker potency in that assay.
